From the supplement of paper PMC10307832

Legend:
Assay in all cases: relative viability (nuclei count vs DMSO), 5 days (fraction); higher = more cells survive
[1] = compound: C1CNCCC1C2=CC(=NN2)C3=CC=NC=C3 + CC(=O)Nc1cccc(-n2c(=O)n(C3CC3)c(=O)c3c(Nc4ccc(I)cc4F)n(C)c(=O)c(C)c32)c1 [Trametinib] (partner 0.02 µM)
Procedure, shortened: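 The day after seeding in 1536-well plates, lung cancer cell lines were treated by pin tool with a single drug, or with a fixed anchor-drug dose together with five library-drug doses (not always all listed) in √10 steps. After 5 days, a combined fix-and-stain solution (final 0.05% Triton X-100, 1% formaldehyde, 1 ug/ml Hoechst) was added. Nuclei counted on 4× images gave relative viability as treated counts over vehicle counts, reported as the median of duplicate plates.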

[2] = compound: C1CNCCC1C2=CC(=NN2)C3=CC=NC=C3
Procedure, shortened: (§1)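 After an overnight hold at 37 °C, lung cancer cell lines in 1536-well plates were pinned with five library-drug doses (not always all listed), each √10 from the next, on vehicle-anchored plates. The cells stayed 5 days without fresh medium, then a one-step fix, permeabilisation and Hoechst stain preceded 4× imaging and MetaXpress nuclear counts. A plate passed only with control CV under 25% and at least one doubling. Viability is the median, over plates, of treated-well nuclei relative to vehicle-well nuclei.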

[3] = compound: O[C@H]1CC[C@H](Nc2ncc3nc(Nc4c(F)cc(F)cc4F)n([C@H]4CCOC4)c3n2)CC1 [Tanzisertib]
Procedure, shortened: as §1

[4] = compound: C[C@@H](N)c1ccc(C(=O)Nc2ccnc3[nH]ccc23)cc1
Procedure, shortened: as §1

Row | Cell Line | relative viability ([1]; first compound 0.08 µM) | relative viability ([1]; first compound 2.53 µM) | relative viability ([1]; first compound 8 µM) | relative viability ([2]; 0.08 µM) | relative viability ([2]; 2.53 µM) | relative viability ([2]; 8 µM) | relative viability ([3]; 0.08 µM) | relative viability ([3]; 0.253 µM) | relative viability ([3]; 0.8 µM) | relative viability ([3]; 2.53 µM) | relative viability ([3]; 8 µM) | relative viability ([4]; 0.04 µM) | relative viability ([4]; 0.1265 µM) | relative viability ([4]; 0.4 µM) | relative viability ([4]; 1.265 µM) | relative viability ([4]; 4 µM) | relative viability ([1]; first compound 0.8 µM) | relative viability ([2]; 0.8 µM)
1 | NCI-H2085 | 0.623 | 0.52 | 0.71 | 1.09 | 1.01 | 0.983 | 0.987 | 0.991 | 1.02 | 1.03 | 0.976 | 0.944 | 0.96 | 0.958 | 0.935 | 0.861 | – | –
2 | NCI-H2170 | 0.763 | 0.915 | 0.907 | 0.834 | 0.939 | 0.984 | 1.11 | 0.96 | 0.992 | 0.977 | 0.887 | 1.1 | 0.992 | 1 | 0.926 | 0.936 | 0.925 | 0.978
3 | HCC-78 | 0.742 | 0.821 | 0.757 | 1.04 | 1 | 1.03 | 1.06 | 1.02 | 0.986 | 0.97 | 0.682 | 1.23 | 0.933 | 1.23 | 0.72 | 0.92 | – | 0.706
4 | NCI-H1395 | 0.905 | 0.966 | 1.16 | 0.861 | 1.07 | 0.882 | 0.986 | 1 | 0.96 | 1.03 | 0.715 | 0.889 | 0.924 | 0.949 | – | 0.828 | 0.992 | 0.733
5 | NCI-H2126 | 0.582 | 0.543 | 0.564 | 0.944 | 1.06 | 1.02 | 1.01 | 1.08 | 1.03 | 0.983 | 0.893 | 1.06 | 0.999 | 0.994 | 0.889 | 1.1 | 0.564 | 0.969
6 | H3255 | 0.532 | 0.689 | 0.736 | 0.934 | 1.2 | 1 | 0.998 | 1.03 | 1.08 | 0.957 | 0.599 | 1 | 1.21 | 1.16 | 1.01 | 0.925 | – | 0.952
7 | HCC-15 | 0.421 | 0.391 | 0.4 | 0.987 | 0.98 | 0.939 | 1.16 | 1 | 1.04 | 0.944 | 0.768 | 1.03 | 0.971 | 1.02 | 0.623 | 0.908 | 0.387 | 1.1
8 | NCI-H661 | 0.568 | 0.586 | 0.596 | 0.993 | 0.96 | 0.988 | 1.01 | 0.997 | 0.964 | 0.944 | 0.964 | 0.907 | 1.02 | 0.974 | 0.891 | 0.87 | 0.561 | 0.964
9 | NCI-H2009 | 0.248 | 0.376 | 0.298 | 1.03 | 1.07 | 1 | 1.08 | 1.04 | 0.999 | 1.12 | 1.06 | 0.978 | 1.02 | 0.958 | 0.922 | 0.813 | 0.257 | 1.07
10 | HCC-44 | 1.09 | 1.04 | 1.05 | 0.999 | 1 | 0.999 | 0.985 | 1.11 | 1.07 | 1.04 | 1.11 | 0.95 | 0.988 | 1.03 | 0.927 | 0.941 | 1.06 | 1.05
11 | NCI-H522 | 0.764 | 0.918 | 0.744 | 0.819 | 0.983 | 0.98 | 1.11 | 1.01 | 1.02 | 0.956 | 0.702 | 0.935 | 0.865 | 1.11 | 0.875 | 0.805 | 0.716 | 1.05
12 | ChaGo-K-1 | 0.916 | 0.897 | 0.807 | 0.93 | 0.952 | 0.91 | 1.05 | 0.999 | 0.984 | 0.992 | 0.986 | 1.08 | 0.999 | 1.02 | 0.804 | 0.888 | 0.85 | 1.05
13 | COR-L23 | 0.583 | 0.678 | 0.608 | 1.02 | 0.991 | 0.982 | 1.06 | 1.04 | 1.07 | 1.06 | 1.04 | 0.913 | 1.17 | 0.941 | 0.878 | 0.646 | 0.62 | 1.19
14 | EMC-BAC-2 | – | 0.994 | 0.991 | 0.78 | 1.07 | 0.98 | 0.989 | 1.31 | 0.99 | 1.04 | 0.82 | 0.769 | 1.02 | 0.945 | 0.789 | 0.795 | 0.946 | 0.97
15 | LCLC-103H | 0.689 | 0.67 | 0.674 | 1.06 | 0.919 | 0.98 | 1.1 | 1.05 | 1.12 | 1 | 1.04 | 1.01 | 0.964 | 0.971 | 0.917 | 0.81 | 0.724 | 0.873
16 | LK-2 | 0.605 | 0.591 | 0.88 | 0.729 | 1.07 | 1.05 | 1.16 | 1.06 | 1 | 1.03 | 1.03 | 1.32 | 0.863 | 1.04 | 0.929 | 1.21 | 0.761 | 1.02
17 | SW 1573 | – | 0.556 | 0.622 | 0.709 | 1.15 | 1.09 | 1.14 | 0.938 | 1 | 1.01 | 0.909 | 1.13 | 1.04 | 1.08 | 0.966 | 0.803 | 0.6 | 1.06
18 | NCI-H2405 | 0.588 | 0.638 | 0.615 | 1.04 | 1.02 | 0.961 | 1.12 | 1.02 | 1.1 | 1.04 | 0.695 | 0.653 | 1.16 | 0.998 | 0.569 | 0.376 | 0.631 | 0.901
